Where two headings read alike, the source gives them in different places. Where a SMILES comes first, the peptide text is derived from it. [ ]: non-standard residue; d: D form. Dolaproine = CO[C@@H]([C@@H]1CCCN1)[C@@H](C)C(=O)O; Dil = CC[C@H](C)[C@H](NC)[C@@H](CC(=O)O)OC; NMeV = CN[C@H](C(=O)O)C(C)C
Experiments:
Assay in all cases: Cytotoxicity in vitro (cell proliferation inhibition, SRB dye)
Assay type in all cases: cell-based, human
JIMT-1 (HER2 positive) = settings: JIMT-1 breast cancer cells
Description: (§1) The cell proliferation inhibitory activity of the drug and ADCs presented in the following Table 2 on cancer cell lines was measured. As the cancer cell lines, commercially available human breast cancer cell lines MCF-7 (HER2 negative to normal), SK-BR3 (HER2 positive), and JIMT-1 (HER2 positive) were used. MMAF-OMe was used as the drug and the ADCs in Table 1 were used as the ADC. Each of the cancer cell lines was seeded in a 96-well plate by from 5,000 to 13,000 per well for the 72 hour treatment group and from 1,500 to 3,000 per well for the 168 hour treatment group, incubated for 24 hours, and then treated with antibodies and ADCs at a concentration of from 0.0051 to 33.33 nM or from 0.0015 to 10.0 nM (three times serial dilutions) and drugs at a concentration of from 0.023 to 50 nM (three times serial dilutions). After 72/168 hours, the number of living cells was quantified using SRB (Sulforhodamine B) dye.

SK-BR3 (HER2 positive) = settings: SK-BR3 breast cancer cells
Description: as §1

[1] = tested on: MCF-7 (HER2 negative to normal); settings: MCF7 breast cancer cells
Description: as §1

Compound: CC[C@H](C)[C@@H]([C@@H](CC(=O)N1CCC[C@H]1[C@H](OC)[C@@H](C)C(=O)N[C@@H](Cc1ccccc1)C(=O)OC)OC)N(C)C(=O)[C@@H](NC(=O)[C@@H](NC)C(C)C)C(C)C [MMAF-OMe] (H-[NMeV]V[Dil][Dolaproine]F-OMe)
- CC50 (JIMT-1 (HER2 positive); 72 hr treatment, read-out: CC50 (nM) JIMT-1 72 hr): 0.14 nM
- CC50 (JIMT-1 (HER2 positive); 168 hr treatment, read-out: CC50 (nM) JIMT-1 168 hr): 0.06 nM
- CC50 (SK-BR3 (HER2 positive); 72 hr treatment, read-out: CC50 (nM) SK-BR3 72 hr): 0.14 nM
- CC50 (SK-BR3 (HER2 positive); 168 hr treatment, read-out: CC50 (nM) SK-BR3 168 hr): 0.06 nM
- CC50 ([1]; 72 hr treatment, read-out: CC50 (nM) MCF7 72 hr): 0.84 nM
- CC50 ([1]; 168 hr treatment, read-out: CC50 (nM) MCF7 168 hr): 0.19 nM

— patent US12398124B2, “Pyrrolobenzodiazepine dimer prodrug and ligand-linker conjugate compound of the same” (priority 2017, dated 2025)
